Test results taken from US10688099B2, “Methods for modulating the amount of RNA transcripts” (PTC Therapeutics, Inc., priority 2013, dated 2020).

System: RNA isoforms in PNN 1-46 SMA type I patient-derived fibroblasts
Assay: RNA Abundance Modulation (RNA isoform abundance, iFPM, HiSeq RNA sequencing)
Assay type: cell-based, human
Details: for RNA abundance modulation (effect on isoform fold increase): 24 hrs, PNN 1-46 fibroblasts
Description: Cells from a cell line of interest are cultured in conditions sufficient to yield the number of cells capable of generating enough RNA for subsequent sequencing steps. Cells from the tested cell line are contacted with a compound described herein.
To culture said cells, they are seeded, at appropriate concentrations in a volume of media in a cell culture container and incubated for 4, 5, 6, 7, 8, 9, 10, or more hours. A concentrated solution of compound in a vehicle (e.g., DMSO) is then added in sufficient volume to result in the intended final concentration of the compound, for example 100 nM, 500 nM, 1 μM, 5 μM, 10 μM, 15 μM, 20 μM, or more. The cells may also be treated with vehicle alone, as a control. A number of replicates of each concentration or control may be made (e.g., 2 replicates). The cells are then incubated at a constant temperature appropriate for cell culture of the particular cell line (e.g., 37° C.) for 6, 12, 18, 24, 48, or more hours. After incubation, the growth medium is removed and the cells are washed with the appropriate buffer (e.g., PBS). Cells are then removed from adherence to the cell culture container by treatment with a solution containing trypsin, and the trypsin subsequently quenched with the appropriate volume of buffer (e.g., DMEM-FBS). The cells are then pelleted with gentle centrifugation (e.g., ≤90×g centrifugal force) and resuspended in a buffer to lyse the cells for extraction of RNA. The cell lysates may then be frozen (e.g., at −80° C.) or, alternately, may immediately be used in a procedure to purify the RNA (e.g. by use of the RNEASY PLUS® minikit). The RNA from cell lysates is eluted in the appropriate volume of buffer (e.g., RNEASE-FREE H2O®). The resulting purified RNA may then be sequenced (e.g., using RNASeq) or analyzed using a human exon array (e.g., by GENECHIP® human exon array) to determine changes in the RNA levels in those cells treated with compound compared to those cells treated only with DMSO. The purified RNA may also be quantified by other methods known in the art.
Using the RNA data obtained from sequencing, exon array, or other methods, a statistical analysis can reveal changes in the RNA levels of compound-treated compared with control. For example, t-test p-values may be calculated for the data obtained through sequencing and exon array methods in order to compare compound-treated cells to those treated with the DMSO control. […] Analysis of the sequencing and exon array data may then also yield predictions about the cause of the aberrant amount of an RNA transcript in the cells (e.g., perturbation of RNA splicing, RNA transcription, or RNA stability). These predictions may be further confirmed by methods known in the art. For example, RT-PCR and RT-qPCR may be used to confirm the change in amount of RNA transcripts for one or more particular transcripts of interest.
Following the methods described above in Example 1, PNN 1-46 SMA type I patient-derived fibroblasts were treated with 300 nM or 3 μM Compounds 774 and 808 in 0.5% DMSO.
700,000 cells were seeded in 10 mL of medium (DMEM plus 10% FBS) in a T-75 flask. Cells were allowed to attach for at least 4 hrs, after which 50 μL of a 200× compound solution (100% DMSO) was added to each well, and the plate was incubated at 37° C. for 24 hrs.
At the end of the incubation period, the supernatant was removed and the cells where washed with PBS. TrypLE (Invitrogen) express solution was added (e.g. 1.5 mL per one T75 flask). The flasks were incubated for 3 to 5 min at 37° C. The trypsin was then quenched, e.g., by adding 10 mL DMEM-FBS.
Next, the cells were pelleted using gentle centrifugation without exceeding 90×g centrifugal force. The supernatant was removed and the cell pellet was re-suspended in 600 μL RLT buffer (the RLT buffer was supplemented with beta-mercaptoethanol according to the RNeasy protocol manual) by pipetting up and down until the pellet was completely dissolved […]

In the case of `CCc1nc(C)cn2nc(-c3cc(=O)n4cc(C5CCN(C)CC5)cc(C)c4n3)cc12` [Compound 774], the “RNA abundance modulation (effect on isoform fold increase)” value (0.3 μM) is reported as “modulates RNA abundance”, the “RNA abundance modulation (effect on isoform fold increase)” value (3 μM) is reported as “modulates RNA abundance” and the “FC (x + 1)” value (TACC1 NM_006283, 3 μM) is reported as 1.1645. The “L2FC (x + 1)” value (TACC1 NM_006283, 3 μM) was 0.220, the “L2abs (Cpd-DMSO)” value (TACC1 NM_006283, 3 μM) was 8.47 and the “abs (Cpd-DMSO)” value (TACC1 NM_006283, 3 μM) was 354 iFPM. The “amp FC (x + 1)” value (TACC1 NM_006283, 3 μM) was 1.16, the “ave Cpd” value (TACC1 NM_006283, 3 μM) was 2506 iFPM and the “FC (x + 1)” value (TAF2 NM_003184, 3 μM) was 0.4533. For the same molecule, the “L2FC (x + 1)” value (TAF2 NM_003184, 3 μM) was −1.141, the “L2abs (Cpd-DMSO)” value (TAF2 NM_003184, 3 μM) was 9.75 and the “abs (Cpd-DMSO)” value (TAF2 NM_003184, 3 μM) was 862 iFPM. For the same molecule, the “amp FC (x + 1)” value (TAF2 NM_003184, 3 μM) was 2.21, the “ave Cpd” value (TAF2 NM_003184, 3 μM) was 714 iFPM and the “FC (x + 1)” value (TANC2 AJ278120, 3 μM) was 1.0181. The “L2FC (x + 1)” value (TANC2 AJ278120, 3 μM) was 0.026, the “L2abs (Cpd-DMSO)” value (TANC2 AJ278120, 3 μM) was 1.28 and the “abs (Cpd-DMSO)” value (TANC2 AJ278120, 3 μM) was 2 iFPM. The “amp FC (x + 1)” value (TANC2 AJ278120, 3 μM) was 1.02, the “ave Cpd” value (TANC2 AJ278120, 3 μM) was 136 iFPM and the “FC (x + 1)” value (TANC2 AK001077, 3 μM) was 4.5130. The “L2FC (x + 1)” value (TANC2 AK001077, 3 μM) was 2.174, the “L2abs (Cpd-DMSO)” value (TANC2 AK001077, 3 μM) was 1.81 and the “abs (Cpd-DMSO)” value (TANC2 AK001077, 3 μM) was 4 iFPM. For the same molecule, the “amp FC (x + 1)” value (TANC2 AK001077, 3 μM) was 4.51, the “ave Cpd” value (TANC2 AK001077, 3 μM) was 4 iFPM and the “FC (x + 1)” value (TANC2 AK021886, 3 μM) was 0.4015. The “L2FC (x + 1)” value (TANC2 AK021886, 3 μM) was −1.317, the “L2abs (Cpd-DMSO)” value (TANC2 AK021886, 3 μM) was 2.40 and the “abs (Cpd-DMSO)” value (TANC2 AK021886, 3 μM) was 5 iFPM. For the same molecule, the “amp FC (x + 1)” value (TANC2 AK021886, 3 μM) was 2.49, the “ave Cpd” value (TANC2 AK021886, 3 μM) was 3 iFPM and the “FC (x + 1)” value (TANC2 BC144357, 3 μM) was 0.3363. For the same molecule, the “L2FC (x + 1)” value (TANC2 BC144357, 3 μM) was −1.572, the “L2abs (Cpd-DMSO)” value (TANC2 BC144357, 3 μM) was 8.29 and the “abs (Cpd-DMSO)” value (TANC2 BC144357, 3 μM) was 313 iFPM. For the same molecule, the “amp FC (x + 1)” value (TANC2 BC144357, 3 μM) was 2.97, the “ave Cpd” value (TANC2 BC144357, 3 μM) was 158 iFPM and the “FC (x + 1)” value (TANC2 NM_025185, 3 μM) was 1.0124. The “L2FC (x + 1)” value (TANC2 NM_025185, 3 μM) was 0.018, the “L2abs (Cpd-DMSO)” value (TANC2 NM_025185, 3 μM) was 4.47 and the “abs (Cpd-DMSO)” value (TANC2 NM_025185, 3 μM) was 22 iFPM. For the same molecule, the “amp FC (x + 1)” value (TANC2 NM_025185, 3 μM) was 1.01, the “ave Cpd” value (TANC2 NM_025185, 3 μM) was 1812 iFPM and the “FC (x + 1)” value (TARBP1 NM_005646, 3 μM) was 0.1192. The “L2FC (x + 1)” value (TARBP1 NM_005646, 3 μM) was −3.068, the “L2abs (Cpd-DMSO)” value (TARBP1 NM_005646, 3 μM) was 8.52 and the “abs (Cpd-DMSO)” value (TARBP1 NM_005646, 3 μM) was 367 iFPM. The “amp FC (x + 1)” value (TARBP1 NM_005646, 3 μM) was 8.39, the “ave Cpd” value (TARBP1 NM_005646, 3 μM) was 49 iFPM and the “FC (x + 1)” value (TBC1D15 AK307922, 3 μM) was 1.0252. The “L2FC (x + 1)” value (TBC1D15 AK307922, 3 μM) was 0.036, the “L2abs (Cpd-DMSO)” value (TBC1D15 AK307922, 3 μM) was 2.70 and the “abs (Cpd-DMSO)” value (TBC1D15 AK307922, 3 μM) was 6 iFPM. The “amp FC (x + 1)” value (TBC1D15 AK307922, 3 μM) was 1.03, the “ave Cpd” value (TBC1D15 AK307922, 3 μM) was 263 iFPM and the “FC (x + 1)” value (TBC1D15 NM_022771, 3 μM) was 1.1954. The “L2FC (x + 1)” value (TBC1D15 NM_022771, 3 μM) was 0.257, the “L2abs (Cpd-DMSO)” value (TBC1D15 NM_022771, 3 μM) was 3.99 and the “abs (Cpd-DMSO)” value (TBC1D15 NM_022771, 3 μM) was 16 iFPM. The “amp FC (x + 1)” value (TBC1D15 NM_022771, 3 μM) was 1.20, the “ave Cpd” value (TBC1D15 NM_022771, 3 μM) was 96 iFPM and the “FC (x + 1)” value (TBC1D15 NM_001146213, 3 μM) was 1.4119. For the same molecule, the “L2FC (x + 1)” value (TBC1D15 NM_001146213, 3 μM) was 0.498, the “L2abs (Cpd-DMSO)” value (TBC1D15 NM_001146213, 3 μM) was 8.07 and the “abs (Cpd-DMSO)” value (TBC1D15 NM_001146213, 3 μM) was 270 iFPM. For the same molecule, the “amp FC (x + 1)” value (TBC1D15 NM_001146213, 3 μM) was 1.41, the “ave Cpd” value (TBC1D15 NM_001146213, 3 μM) was 923 iFPM and the “FC (x + 1)” value (TBC1D15 NM_001146214, 3 μM) was 1.0153. The “L2FC (x + 1)” value (TBC1D15 NM_001146214, 3 μM) was 0.022, the “L2abs (Cpd-DMSO)” value (TBC1D15 NM_001146214, 3 μM) was −0.65 and the “abs (Cpd-DMSO)” value (TBC1D15 NM_001146214, 3 μM) was 1 iFPM. For the same molecule, the “amp FC (x + 1)” value (TBC1D15 NM_001146214, 3 μM) was 1.02, the “ave Cpd” value (TBC1D15 NM_001146214, 3 μM) was 41 iFPM and the “FC (x + 1)” value (TBC1D15 NR_027449, 3 μM) was 0.1625.
